Test results from patent US12409180B2, “Formulation production process” (Verona Pharma PLC, priority 2022, dated 2025).

Legend:
Type in all cases: physicochemical
[1] = Overall assessment of products (assay and related substances) after sterilisation
Description: (§1) Assay testing was performed in duplicate with the key high performance liquid chromatography (HPLC) parameters shown in Table 1.
(§2) Impurities determination was performed in duplicate with the key high performance liquid chromatography (HPLC) parameters shown in Table 2.
(§3) The assays and related substances of the products obtained by each of sterilisation techniques A to F were assessed by the HPLC methods described above.

[2] = Assay testing by HPLC of products after sterilisation; conditions: dry heat treatment at temperatures of from 150° C. to 170° C.
Description: as §1, §3

[3] = Impurities determination (related substances) by HPLC of products after sterilisation; conditions: dry heat treatment at temperatures of from 150° C. to 170° C.
Description: as §2, §3

changes observed (assay and related substances) ([1]; technique C: dry heat treatment of dry powder, 150° C. for 150 minutes): No significant changes observed.
changes observed (assay and related substances) ([1]; technique D: dry heat treatment of dry powder, 160° C. for 120 minutes): No significant changes observed.
changes observed (assay and related substances) ([1]; technique E: dry heat treatment of dry powder, 170° C. for 60 minutes): No significant changes observed.
changes in assay [2]: no significant changes
changes in purity [3]: no significant changes
Structure (SMILES): COc1cc2c(cc1OC)-c1c/c(=N\c3c(C)cc(C)cc3C)n(CCNC(N)=O)c(=O)n1CC2 [micronised ensifentrine, N-(2-{(2E)-9,10-dimethoxy-4-oxo-2-[(2,4,6-trimethylphenyl)imino]-6,7-dihydro-2H-pyrimido [6,1-a]isoquinolin-3(4H)-yl}ethyl) urea]
